In one assay the test system is V561M FGFR1. The assay is described as follows: Intrinsic protein fluorescence quenching titration, V561M FGFR1. The class given is binding, Human. The conditions noted are these: for fold decrease in affinity (increase in Kd) for V561M relative to WT FGFR1: Kd V561M FGFR1 versus Kd WT FGFR1.
Assay [1] deals with FGFR1. As to conditions: read-out: IC50 (enzyme); cited from earlier work.
The subject of assay [2] is FGFR1. The conditions noted are these: read-out: IC50 (cells); cited from earlier work.

Like-named read-outs stand apart in the source and are kept apart here.

One may read the IC50 as the concentration needed to halve the response being measured. On to AZD4547, for which the “fold decrease in affinity (increase in Kd) for V561M relative to WT FGFR1” value in the assay with V561M FGFR1 is 32 fold. The IC50 was 0.2 nM in the assay on FGFR1 [1] and 12 nM with FGFR1 [2].
For the molecule `CNC(=O)c1cccc2cc(Oc3ccnc4cc(OCC5(N)CC5)c(OC)cc34)ccc12` [E3810], the “fold greater loss of affinity for E3810 compared to AZD4547 conferred by the V561M FGFR1 mutation” value in the assay with V561M FGFR1 (E3810 versus AZD4547) was “over 150 fold”. In the assay on V561M FGFR1, the “fold decrease in affinity (increase in Kd) for V561M relative to WT FGFR1” value was determined as 5000 fold.

The values are drawn from paper PMC4533833 (ACS chemical biology, 2015).
